The results in this text go back to patent publication US6821980B1, “Substituted 5-benzyl-2,4-diaminopyrimidines” (Basilea Pharmaceutica AG, priority 1999, dated 2004).

Test [1] addresses purified DHFR of strain 157/4696 of Staphylococcus aureus (Staphylococcus aureus, UniProt P13955). Description: biochemical.
Test [2] has as its target T1, purified DHFR of strain Sp1/1 of Streptococcus pneumoniae (Streptococcus pneumoniae serotype 4, UniProt Q54801).
T1 sequence (Q54801 1-168 I100L): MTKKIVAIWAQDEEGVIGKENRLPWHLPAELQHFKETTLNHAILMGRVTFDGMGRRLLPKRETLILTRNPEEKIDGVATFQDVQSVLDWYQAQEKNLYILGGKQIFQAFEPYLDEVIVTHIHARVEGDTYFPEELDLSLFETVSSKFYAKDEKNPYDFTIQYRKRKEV
It counts as biochemical. To be noted: IC50 against purified DHFR of strain Sp1/1.

Test [3] concerns Streptococcus pneumoniae 1/1. In words: MIC against Streptococcus pneumoniae 1/1. It is filed as cell-based. Particulars: Streptococcus pneumoniae 1/1, trimethoprim- and penicillin-resistant, serotype 6, clinical isolate; for MIC: read-out: MIC Sp1/1.
For test [4], the system named is Staphylococcus aureus 101. Description: MIC against Staphylococcus aureus 101. It is filed as cell-based. Particulars: Staphylococcus aureus 101, MRSA- and trimethoprim-resistant, clinical isolate; for MIC: read-out: MIC Sa101.
Setting [5] is: Table 2, IC50 against purified DHFR of strain 157/4696 (highly trimethoprim-resistant; clinical isolate), read-out: DHFR Sa1.

SMILES strings stand for the structures. In brackets after ≈: the same amount, converted by molar mass. Like-named read-outs stand apart in the source and are kept apart here.

purified DHFR of strain 157/4696 of Staphylococcus aureus, sequence (P13955 whole entry): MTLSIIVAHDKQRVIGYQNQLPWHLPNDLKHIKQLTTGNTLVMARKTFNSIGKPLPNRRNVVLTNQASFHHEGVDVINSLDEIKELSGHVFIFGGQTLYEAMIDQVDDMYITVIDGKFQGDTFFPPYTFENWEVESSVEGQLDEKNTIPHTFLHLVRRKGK

`CCOc1cc(Cc2cnc(N)nc2N)cc(OS(=O)(=O)CC(C)(C)C)c1-c1ccc(N)cc1` [Example 37-c, 2,2-Dimethyl-propane-1-sulphonic acid 4′-amino-4-(2,4-diamino-pyrimidin-5-ylmethyl)-6-ethoxy-biphenyl-2-yl ester]: the values for the IC50 in test [1] and in test [2] (Table 2) were 580 nM and 1.8 nM, respectively. Also, the values for the MIC in test [3] (Table 2) and in test [4] (Table 2) were 0.5 µg/mL (≈ 1.03 µM) and 4 µg/mL (≈ 8.24 µM), respectively.
Taken in the same sequence, the figures for `CCOc1cc(Cc2cnc(N)nc2N)cc(OS(=O)(=O)CC(C)(C)C)c1-c1ccc(NCCO)cc1` [Example 37-d, 2,2-Dimethyl-propane-1-sulphonic acid 4-(2,4-diamino-pyrimidin-5-ylmethyl)-6-ethoxy-4′-(2-hydroxy-ethylamino)-biphenyl-2-yl ester] were 290 nM, 1.5 nM, 0.25 µg/mL (≈ 0.472 µM) and 8 µg/mL (≈ 15.1 µM).
Taken in the same sequence, the figures for `CCOc1cc(Cc2cnc(N)nc2N)cc(OS(=O)(=O)CC2CC2)c1-c1cccc(N)c1` [Example 38-a, Cyclopropylmethane-sulphonic acid 3′-amino-4-(2,4-diamino-pyrimidin-5-ylmethyl)-6ethoxy-biphenyl-2-yl ester] were 160 nM, 5.2 nM, 1 µg/mL (≈ 2.13 µM) and 2 µg/mL (≈ 4.26 µM).
With `CCOc1cc(Cc2cnc(N)nc2N)cc(OS(=O)(=O)CC2CC2)c1-c1ccc(N)c(F)c1` [Example 38-b, Cyclopropylmethane-sulphonic acid 4′-amino-4-(2,4-diamino-pyrimidin-5-ylmethyl)-6-ethoxy-3′-fluoro-4-ylmethyl-biphenyl-2-yl ester], the figures for the IC50 in test [1] (setting [5]) and in test [2] (Table 2) were 220 nM and 6.5 nM, respectively. For the same molecule, the “MIC Sp1/1” value in test [3] (Table 2) is 1 µg/mL (≈ 2.05 µM). Besides, in test [4] (Table 2), the “MIC Sa101” value was 2 µg/mL (≈ 4.1 µM).
On to `CCOc1cc(Cc2cnc(N)nc2N)cc(OS(=O)(=O)CC2CC2)c1-c1ccc(N)c(C)c1` [Example 38-c, Cyclopropylmethane-sulphonic acid 4′-amino-4-(2,4-diamino-pyrimidin-5-ylmethyl)-6-ethoxg-3′-methyl-biphenyl-2-yl ester], for which the results for the IC50 in test [1] and in test [2] (Table 2) were 190 nM and 5.8 nM, respectively. Also, the MIC in test [3] (Table 2) stood at 0.5 µg/mL (≈ 1.03 µM); in test [4] (Table 2) it was 2 µg/mL (≈ 4.14 µM).
`CCOc1cc(Cc2cnc(N)nc2N)cc(OS(=O)(=O)CC2CC2)c1-c1ccc(CN2CCOCC2)c(N)c1` [Example 38-d, Cyclopropylmethane-sulphonic acid 3′-amino-4-(2,4-diamino-pyrimidin-5-ylmethyl)-6-ethoxy-4′-morpholinemethyl-biphenyl-2-yl ester]: the IC50 in test [1] (setting [5]) came to 240 nM; in test [2] (Table 2) it was 3.2 nM. Further, the “MIC Sp1/1” value in test [3] (Table 2) stood at 1 µg/mL (≈ 1.76 µM). The “MIC Sa101” value in test [4] (Table 2) stood at 4 µg/mL (≈ 7.03 µM).
As for `CCOc1cc(Cc2cnc(N)nc2N)cc(OS(=O)(=O)CC(C)(C)OC)c1-c1cccc(N)c1` [Example 39-a, (2-Methoxy-2-methyl-propane)-1-sulphonic acid 3′-amino-4-(2,4-diamino-pyrimidin-5-ylmethyl)-6-ethoxy-biphenyl-2-yl ester], the IC50 in test [1] is 390 nM; in test [2] (Table 2), 4.2 nM. Further, the values for the MIC in test [3] (Table 2) and in test [4] (Table 2) were 1 µg/mL (≈ 1.99 µM) and 4 µg/mL (≈ 7.97 µM), respectively.
As for `CCOc1cc(Cc2cnc(N)nc2N)cc(OS(=O)(=O)CC(C)(C)OC)c1-c1ccc(N)c(C)c1` [Example 39-b, (2-Methoxy-2-methyl-propane)-1-sulphonic acid 4′-amino-4-(2,4-diamino-pyrimidin-5-ylmethyl)-6-ethoxy-3′-methyl-biphenyl-2-yl ester], the values for the IC50 in test [1] and in test [2] (Table 2) were 250 nM and 4.9 nM, respectively. Further, the MIC in test [3] (Table 2) was 0.5 µg/mL (≈ 0.97 µM); in test [4] (Table 2) it was 4 µg/mL (≈ 7.76 µM).
As to `CCOc1cc(Cc2cnc(N)nc2N)cc(OS(=O)(=O)CC(C)(C)OC)c1-c1ccc(N)c(F)c1` [Example 39-c, (2-Methoxg-2-methyl-propane)-1-sulphonic acid 4′-amino-4-(2,4-diamino-pyrimidin-5-ylmethyl)-6-ethoxy-3′-fluoro-4-ylmethyl-biphenyl-2-yl ester], the IC50 in test [1] (setting [5]) was 1000 nM; in test [2] (Table 2) it was 14 nM. The “MIC Sp1/1” value in test [3] (Table 2) is 1 µg/mL (≈ 1.92 µM). The “MIC Sa101” value in test [4] (Table 2) was 8 µg/mL (≈ 15.4 µM).
Regarding `CCOc1cc(Cc2cnc(N)nc2N)cc(OS(=O)(=O)CC(C)(C)OC)c1-c1ccc(CN2CCOCC2)c(N)c1` [Example 39-d, (2-Methoxy-2-methyl-propane)-1-sulphonic acid 3′-amino-4-(2,4-diamino-pyrimidin-5-ylmethyl)-6-ethoxy-4′-morpholinemethyl-biphenyl-2-yl ester], the IC50 in test [1] (setting [5]) was determined as 410 nM; in test [2] (Table 2), 2.6 nM. For the same molecule, the “MIC Sp1/1” value in test [3] (Table 2) was found to be 2 µg/mL (≈ 3.33 µM). Moreover, the “MIC Sa101” value in test [4] (Table 2) was determined as 8 µg/mL (≈ 13.3 µM).
For `CCOc1cc(Cc2cnc(N)nc2N)cc(OS(=O)(=O)C2CCC2)c1-c1cccc(N)c1` [Example 40-a, Cyclobutane-sulphonic acid 3′-amino-4-(2,4-diamino-pyrimidin-5-ylmethyl)-6-ethoxy-biphenyl-2-yl ester], the IC50 was 52 nM in test [1] and 6.5 nM in test [2] (Table 2). The MIC in test [3] (Table 2) is 1 µg/mL (≈ 2.13 µM); in test [4] (Table 2), 2 µg/mL (≈ 4.26 µM).
For the molecule `CCOc1cc(Cc2cnc(N)nc2N)cc(OS(=O)(=O)C2CCC2)c1-c1ccc(N)c(F)c1` [Example 40-b, Cylobutane-sulphonic acid 4′-amino-4-(2,4-diamino-pyrimidin-5-ylmethyl)-6-ethoxy-3′-fluoro-4-ylmethyl-biphenyl-2-yl ester], the IC50 in test [1] (setting [5]) worked out at 310 nM; in test [2] (Table 2) it was 27 nM. In addition, in test [3] (Table 2), the “MIC Sp1/1” value is 1 µg/mL (≈ 2.05 µM). In addition, the “MIC Sa101” value in test [4] (Table 2) amounted to 2 µg/mL (≈ 4.1 µM).
Consider `CCOc1cc(Cc2cnc(N)nc2N)cc(OS(=O)(=O)C2CCC2)c1-c1ccc(CN2CCOCC2)c(N)c1` [Example 40-d, Cyclobutane-sulphonic acid 3′-amino-4-(2,4-diamino-pyrimidin-5-ylmethyl)-6-ethoxy-4′-morpholinomethyl-biphenyl-2-yl ester], for which the figures for the IC50 in test [1] and in test [2] (Table 2) were 130 nM and 17 nM, respectively. Further, the MIC in test [3] (Table 2) and in test [4] (Table 2) was 2 µg/mL (≈ 3.52 µM) in each case.
With `CCOc1cc(Cc2cnc(N)nc2N)cc(OS(=O)(=O)C2CCC2)c1-c1cc(N)cc(F)c1` [Example 40-e, Cyclobutane-sulphonic acid 3′-amino-4-(2,4-diamino-pyrimidin-5-ylmethyl)-6-ethoxy-5′-fluoro-biphenyl-2-yl ester], the IC50 is 160 nM in test [1] and 79 nM in test [2] (Table 2). The MIC in test [3] (Table 2) and in test [4] (Table 2) was 2 µg/mL (≈ 4.1 µM) throughout.
On to `CCOc1cc(Cc2cnc(N)nc2N)cc(OS(=O)(=O)C2CCC2)c1-c1ccc(N)c(C)c1` [Example 40c, Cyclobutane-sulphonic acid 4′-amino-4-(2,4-diamino-pyrimidin-5-ymethyl)-6-ethoxy-3′-methyl-biphenyl-2-yl ester], for which the IC50 in test [1] worked out at 37 nM; in test [2] (Table 1) it was 19 nM. Besides, the MIC in test [3] (Table 1) came out at 0.5 µg/mL (≈ 1.03 µM); in test [4] (Table 1) it was 1 µg/mL (≈ 2.07 µM).
For the molecule `CCOc1cc(Cc2cnc(N)nc2N)cc(OS(=O)(=O)C2CCOCC2)c1-c1ccc(N)c(C)c1` [Example 41-a, Tetrahydropyran-4-sulphonic acid 4′-amino-4-(2,4-diamino-pyrimidin-5-ylmethyl)-6-ethoxy-3′-methyl-biphenyl-2-yl ester], the IC50 is 55 nM in test [1] and 0.3 nM in test [2] (Table 2). Besides, the MIC in test [3] (Table 2) is 0.5 µg/mL (≈ 0.973 µM); in test [4] (Table 2), 2 µg/mL (≈ 3.89 µM).
For `CCOc1cc(Cc2cnc(N)nc2N)cc(OS(=O)(=O)C2CCOCC2)c1-c1ccc(N)c(F)c1` [Example 41-b, Tetrahydronyran-4-sulphonic acid 4′-amino-4-(2,4-diamino-pyrimidin-5-ylmethyl)-6-ethoxy-3′-fluoro-biphenyl-2-yl ester] the same measures were 250 nM, 6.2 nM, 0.5 µg/mL (≈ 0.966 µM) and 4 µg/mL (≈ 7.73 µM).
Take `CCOc1cc(Cc2cnc(N)nc2N)cc(OS(=O)(=O)C2CCOCC2)c1-c1cccc(N)c1` [Example 41-c, Tetrahydropyran-4-sulphonic acid 3′-amino-4-(2,4-diamino-pyrimidin-5-ylmethyl)-6-ethoxy-biphenyl-2-yl ester]: the IC50 in test [1] came out at 43 nM; in test [2] (Table 2), 4.2 nM. Also, the MIC stood at 0.5 µg/mL (≈ 1 µM) in test [3] (Table 2) and 4 µg/mL (≈ 8.01 µM) in test [4] (Table 2).
`CCOc1cc(Cc2cnc(N)nc2N)cc(OS(=O)(=O)CC2CCCO2)c1-c1cccc(N)c1` (centres unmarked) [Example 42-a, Tetrahydrofuran-2-yl-methanesulphonic acid 3′-amino-4-(2,4-diamino-pyrimidin-5-ylmethyl)-6-ethoxy-biphenyl-2-yl ester]: the figures for the IC50 in test [1] and in test [2] (Table 2) were 250 nM and 5.7 nM, respectively. Further, the MIC in test [3] (Table 2) was 2 µg/mL (≈ 4 µM); in test [4] (Table 2), 8 µg/mL (≈ 16 µM).
For `CCOc1cc(Cc2cnc(N)nc2N)cc(OS(=O)(=O)CC2CCCO2)c1-c1ccc(N)c(F)c1` (centres unmarked) [Example 42-b, Tetrahydrofuran-2-yl-methanesulphonic acid 4′-amino-4-(2,4-diamino-primidin-5-ylmethyl)-6-ethoxy-3′-fluoro-biphenAl-2-yl ester] the same measures were 510 nM, 7.6 nM, 2 µg/mL (≈ 3.86 µM) and 8 µg/mL (≈ 15.5 µM).
